How the values were obtained:
lipoamide = compound: NC(=O)CCCCC1CCSS1 [lipoamide]; assay: thermal stability z-score vs DMSO; higher = more thermally stabilized by treatment; conditions: HeLa, lipoamide concentration 100 µM
Description: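 Cellular thermal proteome profiling in HeLa cells. Cells were treated with 100 µM lipoamide for 1 h, with or without 1 mM arsenate for a further 1 h, then heated to ten temperatures (37-66.3 °C), and soluble protein was quantified by TMT mass spectrometry relative to 0.1% DMSO controls. The thermal stability score (sum of log2 fold changes minus the abundance score) was transformed to a z-score; mean of n = 3 experiments.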

potassium arsenate = compound: O=[As]([O-])(O)O.[K+] [potassium arsenate]; assay: as above; conditions: HeLa; arsenate concentration 1 mM
Description: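 Cellular thermal proteome profiling in HeLa cells treated with 1 mM arsenate for 1 h (DMSO pretreatment), heated to ten temperatures (37-66.3 °C). Soluble protein was quantified by TMT mass spectrometry relative to DMSO controls; the thermal stability score was transformed to a z-score; mean of n = 3 experiments.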

[1] = arsenate co-treatment: 1 mM arsenate 1 h
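Further: each temperature applied for 3 min, abundance score taken as mean log2 fold change at the two lowest temperatures, z-score obtained by mean subtraction and division by SD.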

Sequence of UniProt Q8TEW0 (Q8TEW0 whole entry): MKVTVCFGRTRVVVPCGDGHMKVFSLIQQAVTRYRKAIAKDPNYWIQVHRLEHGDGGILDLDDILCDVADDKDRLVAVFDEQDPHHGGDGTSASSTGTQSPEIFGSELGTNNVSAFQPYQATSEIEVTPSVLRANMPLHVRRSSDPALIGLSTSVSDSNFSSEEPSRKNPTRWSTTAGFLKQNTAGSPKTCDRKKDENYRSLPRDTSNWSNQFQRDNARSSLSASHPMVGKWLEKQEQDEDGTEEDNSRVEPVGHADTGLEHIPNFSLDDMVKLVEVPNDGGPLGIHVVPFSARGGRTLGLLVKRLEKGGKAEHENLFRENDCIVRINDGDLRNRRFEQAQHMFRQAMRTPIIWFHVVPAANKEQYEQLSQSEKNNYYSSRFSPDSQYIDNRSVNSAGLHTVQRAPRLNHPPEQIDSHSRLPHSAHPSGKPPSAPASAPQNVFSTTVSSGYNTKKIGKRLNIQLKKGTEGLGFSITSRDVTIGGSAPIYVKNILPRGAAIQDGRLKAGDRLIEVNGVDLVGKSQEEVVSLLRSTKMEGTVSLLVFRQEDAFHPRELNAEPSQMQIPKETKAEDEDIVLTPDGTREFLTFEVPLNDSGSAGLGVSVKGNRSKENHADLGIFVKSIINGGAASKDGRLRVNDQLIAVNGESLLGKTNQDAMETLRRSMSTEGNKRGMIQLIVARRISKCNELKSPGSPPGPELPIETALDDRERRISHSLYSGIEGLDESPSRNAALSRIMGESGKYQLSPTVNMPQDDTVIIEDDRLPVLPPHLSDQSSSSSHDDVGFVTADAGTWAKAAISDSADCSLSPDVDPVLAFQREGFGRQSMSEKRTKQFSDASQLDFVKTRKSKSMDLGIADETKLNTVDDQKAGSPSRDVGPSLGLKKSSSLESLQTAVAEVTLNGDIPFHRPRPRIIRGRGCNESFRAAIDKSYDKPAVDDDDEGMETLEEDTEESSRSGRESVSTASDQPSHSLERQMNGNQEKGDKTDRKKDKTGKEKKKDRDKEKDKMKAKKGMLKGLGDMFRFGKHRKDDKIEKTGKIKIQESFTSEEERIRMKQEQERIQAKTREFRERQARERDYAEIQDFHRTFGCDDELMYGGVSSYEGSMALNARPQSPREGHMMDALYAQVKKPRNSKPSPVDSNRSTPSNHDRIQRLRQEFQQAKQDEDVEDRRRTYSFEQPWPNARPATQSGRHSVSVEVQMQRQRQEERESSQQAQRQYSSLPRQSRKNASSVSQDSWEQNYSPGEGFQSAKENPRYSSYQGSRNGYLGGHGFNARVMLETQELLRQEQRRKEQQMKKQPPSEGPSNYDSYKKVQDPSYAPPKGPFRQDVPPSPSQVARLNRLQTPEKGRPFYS
Sequence of UniProt Q9UKK3 (Q9UKK3 whole entry): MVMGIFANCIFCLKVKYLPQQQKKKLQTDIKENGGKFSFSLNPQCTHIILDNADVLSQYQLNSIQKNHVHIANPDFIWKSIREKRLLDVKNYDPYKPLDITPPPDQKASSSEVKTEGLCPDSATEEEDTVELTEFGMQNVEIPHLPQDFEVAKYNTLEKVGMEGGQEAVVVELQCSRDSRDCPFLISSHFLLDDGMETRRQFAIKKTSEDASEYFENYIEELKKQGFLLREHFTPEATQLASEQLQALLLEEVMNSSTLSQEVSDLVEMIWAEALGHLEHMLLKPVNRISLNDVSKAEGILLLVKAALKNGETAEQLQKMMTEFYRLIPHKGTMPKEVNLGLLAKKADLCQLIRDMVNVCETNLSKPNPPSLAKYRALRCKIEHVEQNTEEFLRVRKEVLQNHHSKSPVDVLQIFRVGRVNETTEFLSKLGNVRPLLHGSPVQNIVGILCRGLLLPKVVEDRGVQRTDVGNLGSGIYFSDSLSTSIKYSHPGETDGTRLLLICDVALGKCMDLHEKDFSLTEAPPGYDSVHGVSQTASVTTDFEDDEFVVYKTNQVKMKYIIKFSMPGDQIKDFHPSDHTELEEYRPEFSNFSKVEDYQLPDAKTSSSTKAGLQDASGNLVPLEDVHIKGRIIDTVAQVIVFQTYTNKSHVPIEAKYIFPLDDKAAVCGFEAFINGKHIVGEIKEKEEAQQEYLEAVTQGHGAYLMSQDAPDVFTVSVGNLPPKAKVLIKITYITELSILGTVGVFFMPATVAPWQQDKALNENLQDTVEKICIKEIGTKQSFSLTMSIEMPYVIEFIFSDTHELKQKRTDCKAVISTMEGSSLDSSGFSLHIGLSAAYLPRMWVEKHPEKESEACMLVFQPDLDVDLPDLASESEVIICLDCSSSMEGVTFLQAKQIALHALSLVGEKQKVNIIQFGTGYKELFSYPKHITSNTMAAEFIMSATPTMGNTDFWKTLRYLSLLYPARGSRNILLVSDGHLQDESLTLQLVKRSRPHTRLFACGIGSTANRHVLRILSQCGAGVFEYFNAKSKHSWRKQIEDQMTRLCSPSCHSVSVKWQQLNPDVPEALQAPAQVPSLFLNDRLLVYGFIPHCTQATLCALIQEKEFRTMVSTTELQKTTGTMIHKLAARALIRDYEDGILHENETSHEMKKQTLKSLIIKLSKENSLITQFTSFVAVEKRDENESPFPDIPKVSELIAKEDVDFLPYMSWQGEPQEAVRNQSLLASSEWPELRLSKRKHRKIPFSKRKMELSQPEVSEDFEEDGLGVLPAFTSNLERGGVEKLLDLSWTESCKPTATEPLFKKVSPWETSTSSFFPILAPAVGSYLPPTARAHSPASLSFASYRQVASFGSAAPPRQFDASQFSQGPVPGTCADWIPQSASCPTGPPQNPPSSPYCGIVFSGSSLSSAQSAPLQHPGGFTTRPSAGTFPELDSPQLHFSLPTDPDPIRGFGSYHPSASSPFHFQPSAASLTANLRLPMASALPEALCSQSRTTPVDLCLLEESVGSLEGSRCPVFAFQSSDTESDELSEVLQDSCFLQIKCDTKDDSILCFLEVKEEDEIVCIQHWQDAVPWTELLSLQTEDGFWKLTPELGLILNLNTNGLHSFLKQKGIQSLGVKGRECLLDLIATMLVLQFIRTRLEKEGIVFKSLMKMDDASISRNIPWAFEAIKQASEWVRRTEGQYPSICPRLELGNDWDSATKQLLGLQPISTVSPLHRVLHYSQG
Sequence of UniProt O95453 (O95453 whole entry): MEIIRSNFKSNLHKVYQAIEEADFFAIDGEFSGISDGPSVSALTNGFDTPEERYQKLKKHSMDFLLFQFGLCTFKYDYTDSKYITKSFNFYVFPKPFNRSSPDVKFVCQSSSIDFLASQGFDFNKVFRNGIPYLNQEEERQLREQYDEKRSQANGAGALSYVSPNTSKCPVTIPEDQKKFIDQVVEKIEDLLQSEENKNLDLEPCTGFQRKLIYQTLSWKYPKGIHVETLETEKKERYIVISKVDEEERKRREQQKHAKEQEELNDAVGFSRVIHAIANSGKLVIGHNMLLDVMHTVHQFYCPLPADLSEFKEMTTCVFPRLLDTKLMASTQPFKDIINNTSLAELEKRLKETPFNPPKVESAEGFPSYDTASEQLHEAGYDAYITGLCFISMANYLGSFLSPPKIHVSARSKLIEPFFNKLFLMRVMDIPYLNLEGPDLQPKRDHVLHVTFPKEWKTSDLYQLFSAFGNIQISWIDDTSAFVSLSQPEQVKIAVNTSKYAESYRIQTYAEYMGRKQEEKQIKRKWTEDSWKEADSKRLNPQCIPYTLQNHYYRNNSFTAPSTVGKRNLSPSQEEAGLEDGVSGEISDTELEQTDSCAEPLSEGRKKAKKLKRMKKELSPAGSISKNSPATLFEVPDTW
Sequence of UniProt Q96IZ0 (Q96IZ0 whole entry): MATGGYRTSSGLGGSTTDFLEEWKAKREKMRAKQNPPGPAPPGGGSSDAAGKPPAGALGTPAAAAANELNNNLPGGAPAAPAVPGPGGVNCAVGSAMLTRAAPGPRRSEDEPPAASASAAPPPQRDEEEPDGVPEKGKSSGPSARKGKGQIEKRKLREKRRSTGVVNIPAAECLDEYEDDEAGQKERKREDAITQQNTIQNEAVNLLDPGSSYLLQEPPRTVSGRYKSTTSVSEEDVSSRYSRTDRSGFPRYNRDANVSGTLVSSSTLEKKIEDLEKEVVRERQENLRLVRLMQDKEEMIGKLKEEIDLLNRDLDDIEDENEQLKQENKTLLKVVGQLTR
Sequence of UniProt Q7L3T8 (Q7L3T8 whole entry): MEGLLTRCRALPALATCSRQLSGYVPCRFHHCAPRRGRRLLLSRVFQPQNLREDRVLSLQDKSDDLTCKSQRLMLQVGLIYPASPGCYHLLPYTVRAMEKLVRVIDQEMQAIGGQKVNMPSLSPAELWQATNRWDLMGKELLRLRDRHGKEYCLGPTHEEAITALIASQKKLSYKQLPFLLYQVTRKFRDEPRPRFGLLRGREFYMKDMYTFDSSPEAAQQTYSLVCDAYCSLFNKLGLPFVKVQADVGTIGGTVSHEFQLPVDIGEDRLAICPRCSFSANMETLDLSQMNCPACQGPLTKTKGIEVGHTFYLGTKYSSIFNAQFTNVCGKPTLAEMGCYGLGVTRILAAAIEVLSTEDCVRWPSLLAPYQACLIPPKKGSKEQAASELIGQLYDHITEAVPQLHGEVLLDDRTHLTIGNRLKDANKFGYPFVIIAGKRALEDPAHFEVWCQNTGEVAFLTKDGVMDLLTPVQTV
Sequence of UniProt Q99497 (Q99497 whole entry): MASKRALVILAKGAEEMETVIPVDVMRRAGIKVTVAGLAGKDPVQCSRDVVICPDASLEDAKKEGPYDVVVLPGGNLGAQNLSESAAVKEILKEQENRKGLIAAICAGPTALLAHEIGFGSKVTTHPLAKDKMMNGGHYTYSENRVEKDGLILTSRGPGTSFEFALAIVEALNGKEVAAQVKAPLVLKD
Sequence of UniProt O75459 (O75459 whole entry): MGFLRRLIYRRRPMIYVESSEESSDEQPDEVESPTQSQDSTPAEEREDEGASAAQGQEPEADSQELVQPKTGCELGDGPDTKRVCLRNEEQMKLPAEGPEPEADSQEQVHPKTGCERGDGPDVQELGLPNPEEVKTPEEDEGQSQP
Sequence of UniProt P61457 (P61457 whole entry): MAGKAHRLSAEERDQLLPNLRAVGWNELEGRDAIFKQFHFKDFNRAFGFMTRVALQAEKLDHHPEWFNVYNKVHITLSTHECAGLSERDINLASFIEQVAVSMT

Row | Target | thermal stability z-score (lipoamide; [1]) | thermal stability z-score (lipoamide; arsenate co-treatment: none) | thermal stability z-score (potassium arsenate)
1 | PAFAH1B2 (UniProt P68402) | 0.526 | 0.289 | -0.469
2 | PAFAH1B3 (UniProt Q15102) | 0.574 | 0.345 | 0.275
3 | PAFAH2 (UniProt Q99487) | 0.543 | -0.499 | -0.363
4 | PAGE1 (UniProt O75459) | 0.147 | 0.51 | -0.636
5 | PAGR1 (UniProt Q9BTK6) | 0.263 | -0.446 | -0.194
6 | PAICS (UniProt P22234) | 0.653 | 0.549 | -0.0525
7 | PAIP1 (UniProt Q9H074) | 0.875 | 0.836 | 0.0886
8 | PAIP2 (UniProt Q9BPZ3) | 0.427 | 0.233 | -1.06
9 | PAK1 (UniProt Q13153) | 0.413 | 0.286 | 0.771
10 | PAK1IP1 (UniProt Q9NWT1) | 0.104 | -0.651 | -1.53
11 | PAK2 (UniProt Q13177) | -0.044 | 0.283 | -0.165
12 | PAK4 (UniProt O96013) | -0.224 | -0.347 | -0.347
13 | PALLD (UniProt Q8WX93) | -0.57 | 0.141 | -0.249
14 | PALM (UniProt O75781) | -0.195 | -0.143 | -0.681
15 | PALMD (UniProt Q9NP74) | 1.1 | 0.987 | 1.81
16 | PAM (UniProt P19021) | -1.15 | -1.32 | -1.17
17 | PAN2 (UniProt Q504Q3) | 0.0953 | -0.21 | -0.143
18 | PAN3 (UniProt Q58A45) | -0.038 | 0.0344 | -0.257
19 | PANK2 (UniProt Q9BZ23) | 0.583 | 0.588 | 0.53
20 | PANK3 (UniProt Q9H999) | 1.22 | 0.571 | 0.672
21 | PANK4 (UniProt Q9NVE7) | -0.399 | -0.303 | 0.112
22 | PANX1 (UniProt Q96RD7) | 0.67 | 0.0977 | 0.123
23 | PAP1 (UniProt Q06141) | -0.00124 | -0.19 | -0.156
24 | PAPD5 (UniProt Q8NDF8) | 0.175 | -0.0726 | -0.0587
25 | PAPOLA (UniProt P51003) | -0.22 | -0.103 | -0.119
26 | PAPOLG (UniProt Q9BWT3) | -0.086 | 0.083 | 0.167
27 | PAPSS1 (UniProt O43252) | -0.0513 | -0.0832 | 0.0908
28 | PAPSS2 (UniProt O95340) | -0.146 | -0.156 | 1.57

Row | Target | thermal stability z-score (lipoamide; [1]) | thermal stability z-score (lipoamide; arsenate co-treatment: none) | thermal stability z-score (potassium arsenate)
29 | PARD3 (UniProt Q8TEW0) | 0.02 | 0.0237 | -0.00597
30 | PARD6B (UniProt Q9BYG5) | 0.233 | -0.00454 | -0.0258
31 | PARG (UniProt Q86W56) | -0.123 | 0.257 | 0.0362
32 | PARK7 (UniProt Q99497) | 4.83 | 0.686 | 4.42
33 | PARL (UniProt Q9H300) | -0.134 | -0.733 | 0.57
34 | PARN (UniProt O95453) | 0.181 | -0.273 | 0.95
35 | PARP1 (UniProt P09874) | -0.643 | 0.7 | -2.03
36 | PARP2 (UniProt Q9UGN5) | 0.0296 | -0.0685 | -0.0979
37 | PARP4 (UniProt Q9UKK3) | 0.157 | -0.044 | 0.742
38 | PARP9 (UniProt Q8IXQ6) | -0.239 | -0.1 | -0.0858
39 | PARP12 (UniProt Q9H0J9) | 0.0419 | -0.00139 | -0.282
40 | PARS2 (UniProt Q7L3T8) | -0.928 | -0.492 | -0.314
41 | PARVA (UniProt Q9NVD7) | 0.468 | 0.672 | 1.14
42 | PARVB (UniProt Q9HBI1) | -0.459 | 0.319 | -0.107
43 | PASK (UniProt Q96RG2) | 0.103 | 0.0323 | -0.353
44 | PATL1 (UniProt Q86TB9) | -0.613 | -0.623 | -0.0875
45 | PAWR (UniProt Q96IZ0) | 0.873 | 0.657 | 0.349
46 | PAXBP1 (UniProt Q9Y5B6) | 0.125 | 0.182 | 0.0461
47 | PAXIP1 (UniProt Q6ZW49) | -0.0199 | 0.255 | 0.00378
48 | PBK (UniProt Q96KB5) | -0.583 | -0.307 | 0.533
49 | PBLD (UniProt P30039) | -0.0252 | -0.218 | -0.578
50 | PBXIP1 (UniProt Q96AQ6) | -3.02 | -2.69 | -0.357
51 | PC (UniProt P11498) | -0.429 | -0.205 | -0.574
52 | PCBD1 (UniProt P61457) | 0.499 | 0.492 | 0.213
53 | PCBP1 (UniProt Q15365) | -0.057 | 0.0883 | -1.31
54 | PCBP2 (UniProt Q15366) | -0.426 | -0.239 | 0.141
55 | PCCA (UniProt P05165) | 0.202 | 0.198 | -0.314
